Values of other authors, collected in patent US6706282B1, “Controlled delivery of phenoxyethyl-substituted 1,2,4-triazolones” (priority 1998, dated 2004).
Counter-ions that a name gives are not always drawn.

time of peak plasma concentrations after dosing (conventional immediate release formulations): about one
half-life (in vivo): 2 to 4 h
Structure (SMILES): CCc1nn(CCCN2CCN(c3cccc(Cl)c3)CC2)c(=O)n1CCOc1ccccc1 [nefazodone hydrochloride, 2-[3-[4-(3-chlorophenyl)-piperazinyl]propyl]-5-ethyl-4-(2-phenoxyethyl)-2H-1,2,4-triazol-3(4H)-one hydrochloride]
